Data reported in article PMC6664820, “Novel natural and synthetic inhibitors of solute carriers SGLT1 and SGLT2” (Pharmacology Research & Perspectives, 2019).
Where a name gives a salt, the structure may show the parent alone. Read-outs that look alike come from different tables or passages of the source.

Legend:
SGLT1 = target: T1, SGLT1 (Homo sapiens, UniProt P13866); assay: SGLT1 inhibition assay for validation of screening hits and similar compounds (1‐NBD‐glucose uptake, CHO‐hSGLT1 cells); type: cell-based; set-up: activity: dose or concentration left out as unconfirmed; details: for activity: compound, normalized 1-NBD-glucose uptake, CHO-hSGLT1 cells; for activity / remaining activity at 5 µM / remaining activity at 50 µM: mean; for remaining activity at 5 µM / remaining activity at 50 µM: 0.5 h, concentration not given, read-out: NORMALIZED SGLT1 ACTIVITY (%)
T1 sequence (P13866 1-664): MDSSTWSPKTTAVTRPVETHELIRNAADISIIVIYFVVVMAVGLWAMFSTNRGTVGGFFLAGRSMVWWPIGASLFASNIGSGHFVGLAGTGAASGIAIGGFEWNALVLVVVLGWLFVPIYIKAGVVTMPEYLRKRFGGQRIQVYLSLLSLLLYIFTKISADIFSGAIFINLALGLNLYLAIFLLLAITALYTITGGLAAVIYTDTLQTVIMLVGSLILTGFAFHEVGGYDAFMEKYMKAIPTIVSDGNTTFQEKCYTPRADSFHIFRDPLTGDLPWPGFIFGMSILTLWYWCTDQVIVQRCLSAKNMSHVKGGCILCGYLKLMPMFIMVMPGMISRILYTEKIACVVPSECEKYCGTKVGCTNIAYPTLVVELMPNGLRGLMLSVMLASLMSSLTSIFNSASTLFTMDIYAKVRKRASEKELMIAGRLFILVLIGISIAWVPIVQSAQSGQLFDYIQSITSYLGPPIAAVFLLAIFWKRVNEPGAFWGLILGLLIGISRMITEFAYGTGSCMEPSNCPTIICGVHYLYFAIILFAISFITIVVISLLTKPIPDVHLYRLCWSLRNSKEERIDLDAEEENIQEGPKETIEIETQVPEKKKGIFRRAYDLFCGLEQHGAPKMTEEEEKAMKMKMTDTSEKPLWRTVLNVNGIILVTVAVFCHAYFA

hSGLT2 = target: T2, hSGLT2 (Homo sapiens, UniProt P31639); assay: SGLT2 inhibition assay for validation of screening hits and similar compounds (1‐NBD‐glucose uptake, CHO‐hSGLT2 cells); type: cell-based; set-up: activity: dose or concentration left out as unconfirmed; details: for remaining activity at 5 µM / remaining activity at 50 µM: 0.5 h, concentration not given, read-out: NORMALIZED SGLT2 ACTIVITY (%); for remaining activity at 5 µM / remaining activity at 50 µM / activity: mean; for activity: compound, normalized 1-NBD-glucose uptake, CHO-hSGLT2 cells
T2 sequence (P31639 1-672): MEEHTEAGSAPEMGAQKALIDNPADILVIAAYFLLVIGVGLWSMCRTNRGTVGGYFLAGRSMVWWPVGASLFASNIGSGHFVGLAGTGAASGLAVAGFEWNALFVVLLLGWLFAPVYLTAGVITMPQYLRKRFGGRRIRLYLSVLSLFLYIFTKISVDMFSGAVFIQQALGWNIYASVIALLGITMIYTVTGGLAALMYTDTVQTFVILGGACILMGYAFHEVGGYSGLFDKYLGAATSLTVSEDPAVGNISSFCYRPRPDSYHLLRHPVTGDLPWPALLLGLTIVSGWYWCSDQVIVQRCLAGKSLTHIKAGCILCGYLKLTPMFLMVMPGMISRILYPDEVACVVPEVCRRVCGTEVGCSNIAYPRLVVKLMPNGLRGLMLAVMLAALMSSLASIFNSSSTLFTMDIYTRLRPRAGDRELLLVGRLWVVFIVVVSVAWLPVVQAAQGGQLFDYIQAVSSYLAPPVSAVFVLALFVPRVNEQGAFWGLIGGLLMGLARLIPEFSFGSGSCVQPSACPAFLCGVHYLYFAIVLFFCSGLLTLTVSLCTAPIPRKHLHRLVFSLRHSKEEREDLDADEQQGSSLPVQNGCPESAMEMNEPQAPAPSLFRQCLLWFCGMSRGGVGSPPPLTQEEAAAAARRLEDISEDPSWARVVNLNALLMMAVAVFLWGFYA

CHO‐hSGLT1/2 cells = assay: Cytotoxicity assay (ToxiLight, adenylate kinase leakage into CHO‐SGLT1/2 inhibition assay media); set-up: CYTOTOXICITY / CY[…], mean / CYTOTOXICITY (% of vehicle control) Mean / CYTOTOXICITY, mean / CY[…] (% of vehicle control) Mean: dose or concentration left out as unconfirmed; details: mean; for CY[…] 50 mM: at 50 mM (so in the source);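 on all read-outs here: bioluminescent read-out of adenylate kinase released from lysed cells into the medium, given relative to DMSO vehicle control defined as 0%, higher meaning more cytolysis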
[1] = mean inhibition with 50 μmol/L inhibitor
[2] = ratio of normalized SGLT2 to SGLT1 activity at 5 uM

| Structure (SMILES) | activity (SGLT1) | CYTOTOXICITY (% of vehicle control) Mean (CHO‐hSGLT1/2 cells) | SGLT2/SGLT1 ACTIVITY RATIO 5 uM Mean (hSGLT2; [2]) | remaining activity at 5 µM (SGLT1) | remaining activity at 50 µM (SGLT1) | remaining activity at 5 µM (hSGLT2) | remaining activity at 50 µM (hSGLT2) | CYTOTOXICITY (CHO‐hSGLT1/2 cells) | other results |
| --- | --- | --- | --- | --- | --- | --- | --- | --- | --- |
| C=C(C)C(CC=C(C)C)Cc1c(O)cc2c(c1O)C(=O)CC(c1ccc(O)cc1O)O2 (stereo not shown) [Kushenol F] | 109% | 15 % of vehicle control | – | – | – | – | – | – | SGLT2/SGLT1 ACTIVITY RATIO 5 uM Mean (hSGLT2): 1.1; SGLT2/SGLT1 ACTIVITY RATIO 50 mM Mean (hSGLT2): 1.1 |
| CC1(C)Oc2ccc3ccc(=O)oc3c2CC1O (stereo not shown) [Lomatin] | – | -26 % of vehicle control | 1.0 | – | – | – | – | – | SGLT1 inhibition (SGLT1; [1]): no SGLT inhibition; SGLT2 inhibition (hSGLT2; [1]): no SGLT inhibition |
| Oc1cc(O)cc(/C=C/c2ccc(O)cc2O)c1 [Oxyresveratrol] | – | – | – | 105% | 123% | 109% | 115% | -89 | – |
| C1CCC(C(CC2CCCCN2)C2CCCCC2)CC1 (stereo not shown) [Perhexiline maleate salt] | – | – | – | 98% | 49% | 88% | 38% | – | CY[…] 50 mM (CHO‐hSGLT1/2 cells): 0.684 |
| Oc1cc(O)cc(/C=C/c2ccc(O)c(O)c2)c1 [Piceatannol] | – | – | – | 107% | 101% | 101% | 105% | -87 | – |
| Oc1cc(O)cc(/C=C/c2ccccc2)c1 [Pinosylvin] | – | – | – | 98% | 155% | 97% | 117% | -71 | – |
| CC1(C)Oc2ccc3ccc(=O)oc3c2[C@@H](O)[C@H]1O[C@@H]1O[C@H](CO)[C@@H](O)[C@H](O)[C@H]1O [Praeroside II] | 98% | 10 % of vehicle control | 1.0 | – | – | – | – | – | activity (hSGLT2): 98% |
| CC=C(C)C(=O)O[C@H]1c2c(ccc3ccc(=O)oc23)OC(C)(C)[C@H]1OC(=O)C(C)=CC [Praeruptorin B - INDOFINE] | 91% | -15 % of vehicle control | 1.0 | – | – | – | – | – | activity (hSGLT2): 92% |
| COc1cc(O)c2c(=O)c(-c3ccc(OC4OC(CO)C(O)C(O)C4O)cc3)coc2c1 (stereo not shown) [Prunetin-4-p-galactoside] | 81% | -26 % of vehicle control | 1.2 | – | – | – | – | – | activity (hSGLT2): 100% |
| COc1cc(/C=C/c2ccc(O)cc2)cc(OC)c1 [Pterostilbene] | – | – | – | 100% | 119% | 102% | 123% | -42 | – |
| C[C@@H]1O[C@@H](O[C@H]2[C@H](O[C@H]3CC[C@]4(C)[C@H]5CC=C6[C@@H]7CC(C)(C)CC[C@]7(C(=O)O)CC[C@@]6(CO)[C@]5(C)CC[C@H]4C3(C)C)OC[C@H](O[C@@H]3O[C@H](CO)[C@@H](O)[C@H](O)[C@H]3O)[C@@H]2O)[C@H](O)[C@H](O)[C@H]1O [Raddeanoside 20] | – | – | – | 103% | 99% | 116% | 116% | -24 | – |
| CCCN1CCCC[C@H]1C(=O)Nc1c(C)cccc1C [Ropivacaine HCl monohydrate] | – | – | – | 97% | 70% | 86% | 67% | – | CY[…] 50 mM (CHO‐hSGLT1/2 cells): 0.836 |
